SMILES strings stand for the structures.

The target of one test is T1, KRAS WT (Homo sapiens, UniProt P01116).
T1 construct: made in house; host or cells: E. coli, e.g. BL21 (DE3)
Put plainly: HTRF assay, wildtype KRAS interaction with SOS1. The following applies: bins <500 nM / 500 nM to 1000 nM, read-out: Inhibition of KRAS WT (IC50). The format is biochemical.

Another test has as its target T2, KRAS G12V (Homo sapiens, UniProt P01116, G12V).
T2 construct: made in house; host or cells: E. coli, e.g. BL21 (DE3)
Put plainly: HTRF assay, KRAS G12V interaction with SOS1. In kind it is biochemical. The settings on record: bins <500 nM / 500 nM to 1000 nM, read-out: Inhibition of KRAS G12V (IC50). For orientation: Time-resolved FRET reads energy transfer from a long-lived donor to a nearby acceptor.

A further test deals with MiaPaca2 cells. The test can be described thus: Ras cellular assay, growth of cells with K-Ras G12C mutation. In kind it is cell-based. The settings on record: Homo sapiens, MIA PaCa-2; cell proliferation assay; bins ≤500 nM / >500 nM; read-out: Inhibition of MiaPaca2 Cells (IC50). In outline:
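Anchorage-independent growth: G12C-mutant MIA PaCa-2 plated in soft agar, time-zero plate read the next day when compound was dosed (final DMSO 0.3%). After growth to day 10, MTS-type absorbance at 490/660 nm relative to time zero gave IC50 via four-parameter fitting.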

The next test has as its target T3, KRAS G12S (Homo sapiens, UniProt P01116, G12S).
T3 construct: made in house; host or cells: E. coli, e.g. BL21 (DE3)
Put plainly: HTRF assay, KRAS G12S interaction with SOS1. In kind it is biochemical. The following applies: bins <500 nM / 500 nM to 1000 nM, read-out: Inhibition of KRAS G12S (IC50).

For another test, the target named is T4, KRAS G12D (Homo sapiens, UniProt P01116, G12D).
T4 construct: made in house; host or cells: E. coli, e.g. BL21 (DE3)
The test can be described thus: HTRF assay, KRAS G12D interaction with SOS1. In kind it is biochemical. The settings on record: bins <500 nM / 500 nM to 1000 nM, read-out: Inhibition of KRAS G12D (IC50).

T4 sequence (P01116 1-188 isoform P01116-2 G12D): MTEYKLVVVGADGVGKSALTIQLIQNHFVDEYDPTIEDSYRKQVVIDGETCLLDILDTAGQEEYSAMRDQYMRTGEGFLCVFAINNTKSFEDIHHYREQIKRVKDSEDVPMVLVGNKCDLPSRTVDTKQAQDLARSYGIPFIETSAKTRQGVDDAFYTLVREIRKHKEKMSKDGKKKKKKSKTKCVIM
T1 sequence (P01116 1-188 isoform P01116-2): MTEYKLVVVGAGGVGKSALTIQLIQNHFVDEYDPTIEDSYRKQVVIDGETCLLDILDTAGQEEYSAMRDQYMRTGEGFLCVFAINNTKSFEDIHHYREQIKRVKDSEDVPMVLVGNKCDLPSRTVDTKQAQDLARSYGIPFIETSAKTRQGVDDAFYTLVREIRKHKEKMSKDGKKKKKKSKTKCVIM
T3 sequence (P01116 1-188 isoform P01116-2 G12S): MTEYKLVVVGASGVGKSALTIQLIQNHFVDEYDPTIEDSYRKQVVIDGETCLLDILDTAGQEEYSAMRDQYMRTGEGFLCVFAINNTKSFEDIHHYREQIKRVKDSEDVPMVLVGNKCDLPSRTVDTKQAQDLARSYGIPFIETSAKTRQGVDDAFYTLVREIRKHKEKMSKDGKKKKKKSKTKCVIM
T2 sequence (P01116 1-188 isoform P01116-2 G12V): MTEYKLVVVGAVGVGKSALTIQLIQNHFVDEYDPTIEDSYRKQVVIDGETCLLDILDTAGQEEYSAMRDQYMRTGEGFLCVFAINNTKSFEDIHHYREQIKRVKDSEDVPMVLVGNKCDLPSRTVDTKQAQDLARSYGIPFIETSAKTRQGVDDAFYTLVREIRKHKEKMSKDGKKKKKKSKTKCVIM

As a reminder, the IC50 is the concentration needed to halve the response being measured. As for `CN(c1nc(OC[C@@]23CCCN2C[C@H](F)C3)nc2c(F)c(-c3ccc(F)c4sc(N)c(C#N)c34)c(Cl)cc12)[C@@H]1CCN(C(=O)n2cncn2)C1` [Compound 181, 4-(4-(((R)-1-(1H-1,2,4-triazole-1-carbonyl)pyrrolidin-3-yl)(methyl)amino)-6-chloro-8-fluoro-2-(((2R,7aS)-2-fluorotetrahydro-1H-pyrrolizin-7a(5H)-yl)methoxy)quinazolin-7-yl)-2-amino-7-fluorobenzo[b]thiophene-3-carbonitrile], the IC50 at KRAS WT is less than 0.5 µM; at KRAS G12V it was less than 0.5 µM; in the test on MiaPaca2 cells, no more than 0.5 µM; on KRAS G12S, less than 0.5 µM; at KRAS G12D it was less than 0.5 µM.
As to `CCN(c1nc(OC[C@@]23CCCN2[C@H](COc2ccc(C(F)(F)F)nn2)CC3)nc2c(F)c(-c3ccc(F)c4sc(N)c(C#N)c34)c(Cl)cc12)[C@@H]1CCN(C(=O)n2cc(C)nc2C)[C@@H]1C` [Compound 182, 2-amino-4-(6-chloro-4-(((2R,3R)-1-(2,4-dimethyl-1H-imidazole-1-carbonyl)-2-methylpyrrolidin-3-yl)(ethyl)amino)-8-fluoro-2-(((3S,7aS)-3-(((6-(trifluoromethyl)pyridazin-3-yl)oxy)methyl)tetrahydro-1H-pyrrolizin-7a(5H)-yl)methoxy)quinazolin-7-yl)-7-fluorobenzo[b]thiophene-3-carbonitrile], the half-inhibitory concentration (IC50) is less than 0.5 µM on KRAS WT; less than 0.5 µM on KRAS G12V; no more than 0.5 µM in the test with MiaPaca2 cells; less than 0.5 µM at KRAS G12S; less than 0.5 µM at KRAS G12D.
On to `C[C@@H]1[C@H](N(C)c2nc(OC[C@@]34CCCN3C[C@H](F)C4)nc3c(F)c(-c4ccc(F)c5sc(N)c(C#N)c45)c(Cl)cc23)CCN1C(=O)n1cnc(CC#N)c1` [Compound 183, 2-amino-4-(6-chloro-4-(((2R,3R)-1-(4-(cyanomethyl)-1H-imidazole-1-carbonyl)-2-methylpyrrolidin-3-yl)(methyl)amino)-8-fluoro-2-(((2R,7aS)-2-fluorotetrahydro-1H-pyrrolizin-7a(5H)-yl)methoxy)quinazolin-7-yl)-7-fluorobenzo[b]thiophene-3-carbonitrile], for which the half-inhibitory concentration (IC50) at KRAS WT was less than 0.5 µM; on KRAS G12V, less than 0.5 µM; in the test with MiaPaca2 cells, no more than 0.5 µM; on KRAS G12S, less than 0.5 µM; on KRAS G12D, less than 0.5 µM.
Consider `CCN(c1nc(OC[C@@]23CCCN2C[C@H](F)C3)nc2c(F)c(-c3ccc(F)c4sc(N)c(C#N)c34)c(I)cc12)[C@@H]1CCN(C(=O)n2cc(C)nc2C)[C@@H]1C` [Compound 184, 2-amino-4-(4-(((2R,3R)-1-(2,4-dimethyl-1H-imidazole-1-carbonyl)-2-methylpyrrolidin-3-yl)(ethyl)amino)-8-fluoro-2-(((2R,7aS)-2-fluorotetrahydro-1H-pyrrolizin-7a(5H)-yl)methoxy)-6-iodoquinazolin-7-yl)-7-fluorobenzo[b]thiophene-3-carbonitrile], for which the IC50 on KRAS WT was less than 0.5 µM; on KRAS G12V it was less than 0.5 µM; in the test on MiaPaca2 cells it was no more than 0.5 µM; on KRAS G12S, less than 0.5 µM; on KRAS G12D it was less than 0.5 µM.
Turning to `Cc1c(F)c(N)cc(-c2ncc3c(N(C)[C@@H]4CCN(C(=O)n5cnc(F)n5)[C@@H]4C)nc(OC[C@@]45CCCN4C[C@H](F)C5)nc3c2F)c1C(F)(F)F` [Compound 185, ((2R,3R)-3-((7-(5-amino-4-fluoro-3-methyl-2-(trifluoromethyl)phenyl)-8-fluoro-2-(((2R,7aS)-2-fluorotetrahydro-1H-pyrrolizin-7a(5H)-yl)methoxy)pyrido[4,3-d]pyrimidin-4-yl)(methyl)amino)-2-methylpyrrolidin-1-yl)(3-fluoro-1H-1,2,4-triazol-1-yl)methanone], the IC50 was less than 0.5 µM on KRAS WT; less than 0.5 µM on KRAS G12V; no more than 0.5 µM in the test on MiaPaca2 cells; less than 0.5 µM on KRAS G12S; less than 0.5 µM at KRAS G12D.
